The target in one assay is T1, Papain (Carica papaya, UniProt P00784).
T1 sequence (P00784 134-345): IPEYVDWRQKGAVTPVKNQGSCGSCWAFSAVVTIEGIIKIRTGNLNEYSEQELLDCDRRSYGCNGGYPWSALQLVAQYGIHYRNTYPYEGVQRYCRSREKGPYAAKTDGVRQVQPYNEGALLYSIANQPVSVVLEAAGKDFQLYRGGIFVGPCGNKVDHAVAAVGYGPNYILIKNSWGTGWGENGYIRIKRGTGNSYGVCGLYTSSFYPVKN
The experiment in a line: Papain inhibition, Ki by Dixon plot (Table PKC1). As to conditions: 0.05M Tris-HCl pH 7.5, 2 mM EDTA, 5 mM cysteine, 1% DMSO, 25° C., substrate Nα-Benzoyl-Arg-AMC; read-out: Ki P (Papain). The assay is classed as biochemical. An outline of the steps:
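Papain activity was read by fluorimetric AMC release (ex 380/em 460 nm) from Nα-Benzoyl-Arg-AMC in 0.05M Tris-HCl pH 7.5, 2 mM EDTA, 5 mM fresh cysteine, 1% DMSO, 25° C; "e"-marked values used Nα-Benzoyl-Arg-NA in 50 mM Tris-HCl pH 7.5, 20 mM EDTA, 5 mM cysteine, 9% DMSO. Enzyme started reactions; Ki was taken from Dixon plots over varied substrate and inhibitor concentrations.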

The target of the next assay is T2, Calpain I (Homo sapiens, UniProt P07384).
T2 sequence (P07384 1-714): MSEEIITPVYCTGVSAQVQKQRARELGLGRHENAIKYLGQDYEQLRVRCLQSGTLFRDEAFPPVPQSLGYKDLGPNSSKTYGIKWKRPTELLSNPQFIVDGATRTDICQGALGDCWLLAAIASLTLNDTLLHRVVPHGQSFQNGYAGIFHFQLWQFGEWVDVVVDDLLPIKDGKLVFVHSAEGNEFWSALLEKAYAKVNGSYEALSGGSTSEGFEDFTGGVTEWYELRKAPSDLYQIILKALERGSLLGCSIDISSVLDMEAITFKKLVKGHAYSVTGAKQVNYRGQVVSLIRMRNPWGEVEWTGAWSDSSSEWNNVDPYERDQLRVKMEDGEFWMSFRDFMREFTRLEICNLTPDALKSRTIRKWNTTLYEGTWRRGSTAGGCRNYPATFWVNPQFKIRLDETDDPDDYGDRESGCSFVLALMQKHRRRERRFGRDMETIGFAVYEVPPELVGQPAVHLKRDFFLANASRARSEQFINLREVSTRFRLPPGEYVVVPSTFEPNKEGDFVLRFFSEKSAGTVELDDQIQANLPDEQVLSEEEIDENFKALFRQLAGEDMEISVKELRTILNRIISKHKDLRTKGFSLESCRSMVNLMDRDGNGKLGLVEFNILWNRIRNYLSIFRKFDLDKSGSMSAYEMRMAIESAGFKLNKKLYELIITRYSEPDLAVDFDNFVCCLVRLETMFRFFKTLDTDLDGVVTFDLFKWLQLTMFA
T2 sequence (P04632 1-268 partner): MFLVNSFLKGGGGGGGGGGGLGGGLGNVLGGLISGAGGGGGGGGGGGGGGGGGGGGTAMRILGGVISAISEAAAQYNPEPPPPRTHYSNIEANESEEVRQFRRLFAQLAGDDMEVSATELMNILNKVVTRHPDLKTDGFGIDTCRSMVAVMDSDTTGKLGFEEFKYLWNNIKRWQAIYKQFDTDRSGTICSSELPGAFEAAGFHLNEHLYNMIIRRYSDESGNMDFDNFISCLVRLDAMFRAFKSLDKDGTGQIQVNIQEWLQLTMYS
The assay can be described thus: Calpain I KI (Table 1B(ii)). The assay is classed as biochemical. As to conditions: Table 1B(ii). An excerpt:
We tested the ability of an additional group of Peptide Keto-Compounds to inhibit several proteases in order to evaluate their specificity for Calpain.

Assay [1] deals with Calpain activity (spectrin BDP's). The assay can be described thus: Transient ischemia in gerbils, spectrin BDP's in CA1 (Example 3B). It is filed as in vivo, gerbil. The note with it: CA1 region, 30 minutes after clamping. Here is the method: Implantation surgeries and clamping of the carotid arteries were performed as above with a control-ischemia group (n=4) and a leupeptin-ischemia group (n=5). A third group of animals (n=4) received implantation with pumping of saline, but was not subjected to ischemia. Animals were sacrificed by decapitation 30 minutes after clamping of the arteries. The brains were rapidly removed and placed in cold homogenization buffer (0.32M sucrose, 10 mM Tris-HCl, 2 mM EDTA, 1 mM EGTA, 100 μM leupeptin and 1 μg/ml of the Halo-Ketone Compound, tos-phe-CH2 Cl (TPCK)). The CA1 region of the hippocampus was then dissected. The samples from both control and leupeptin treated animals were then prepared for SDS-PAGE and immunoblotting with labeled anti-spectrin antibody, as described above in connection with in vitro uses of the Calpain Inhibitors. […] These BDP's co-migrated with BDP's observed after in vitro proteolysis of spectrin with Calpain.

The subject of another assay is hippocampal slices. The experiment in a line: Hippocampal slice EPSP recovery from severe hypoxia (FIG. 5). It is filed as cell-based, rat. As to conditions: one hour incubation. On the procedure: These studies were performed in a manner similar to that of Example 7B, except using a hypoxic environment in place of the anoxia of Example 7B. […] The control slices experienced little or no recovery.

From US5444042A, “Method of treatment of neurodegeneration with calpain inhibitors” (Cortex Pharmaceuticals, priority 1994, dated 1995) come the findings set out here.

Molecules are shown by their SMILES.

As for `CCC(NC(=O)[C@@H]1CCCN1C(=O)[C@H](C)NC(=O)[C@H](C)NC(=O)CCC(=O)OC)C(=O)C(=O)OC` (mixture of isomers) [MeO-Suc-Ala-Ala-Pro-Abu-COOMe, MeO-Suc-Ala-Ala-Pro-DL-Abu-CO2 Me], the Ki on Papain was determined as 700 nM. In the case of `CCOC(=O)C(=O)C(CC)NC(=O)[C@H](C)NC(=O)[C@H](C)NC(=O)OCc1ccccc1` (mixture of isomers) [Z-Ala-Ala-DL-Abu-COOEt, Z-Ala-Ala-DL-Abu-CO2 Et], the inhibitory constant (Ki) on Papain is 900 nM.

For the compound `CCCC(NC(=O)[C@H](CC(C)C)NC(=O)OCc1ccccc1)C(=O)C(=O)OCC` (mixture of isomers) [Z-Leu-Nva-COOEt, Z-Leu-DL-Nva-COOEt], on Calpain I, affinity was put at a Ki of 1400 nM.

In the case of `CC(=O)N[C@@H](CC(C)C)C(=O)N[C@@H](CC(C)C)C(=O)N[C@H](C=O)CCCNC(=N)N` [Leupeptin, Ac-Leu-Leu-Arg-H, reference compound], the “spectrin BDP's relative to control ischemia treated gerbils” value in assay [1] was “approximately 25%”.

Consider `CCOC(=O)C(=O)C(Cc1ccccc1)NC(=O)C(CC(C)C)NC(=O)OCc1ccccc1` (stereo not drawn) [Z-Leu-Phe-COOEt], for which the “percent recovery of EPSP from severe hypoxia (FIG. 5)” value in the assay on hippocampal slices was “partial recovery”.

The term Ki denotes a dissociation constant, usually derived from enzyme kinetics or from competition with a known ligand.
